Tests used:
[1] = weak organic acid; cited from earlier work
apple leaf cuticles = assay: Membrane penetration test with apple leaf cuticles for mesotrione; assay type: in vitro ADME; conditions: summary in words of Table 1
Description: Increasing the absorption of systemic active ingredients using the example of mesotrione and test system for measurement of the promotion of penetration of active ingredients
Surfactants can promote the absorption of (active) ingredients through membranes such as skin, films or the plant cuticle. As a “finite-dose” application, it is known for the single administration or application of a solution, cream, gel etc. to a membrane that the absorption of active ingredient can be influenced by some additives such as surfactants even after wetting. This effect is independent of the interfacial effect in water, is often highly concentration-dependent and takes place for the most part after evaporation of water and any solvents present rather than as a result of the interaction, for example, with active ingredient, membrane and environmental factors. […]
The potential of the test substances, which is independent of the surfactant action, to promote foliar absorption of active agrochemical ingredients was determined in membrane penetration tests with apple leaf cuticles for mesotrione. […] At regular intervals, aliquot samples were taken and the proportion of active ingredient penetrated was determined by HPLC. During the experiment, the temperature in the system (block, diffusion cells, liquids, etc.) and the air humidity above the spray coating on the cuticle were known exactly and were monitored. […]

[2] = Dynamic surface tension (Krüss PocketDyne BP2100); assay type: physicochemical; conditions: for Surface tension: 24.6° C.
Description: In the case of plants that are difficult to wet, such as the cereal plants wheat, barley, triticale, rye and oats, in the case of further large-scale crops corn, rice, soya and oilseed rape, and also in the case of almost all weed grasses and numerous dicotyledonous weeds that are difficult to control, such as Chenopodium album or Euphorbium heterophyllum, the promotion of the adsorption of the spray liquid on the green parts of the plant is of crucial significance. This wetting agent effect was therefore also determined for the glucamides.
For a given application technique or parameters (nozzle, pressure, water application rate, distance from the plant surface), the value for the dynamic surface tension in [mN/m] correlates well with the adhesion on plants that are difficult to wet such as barley (or cereals in general) and weed grasses. A value of 50 mN/m (at 20-21° C.) with respect to water (72.8 mN/m) results in an improvement in the adhesion from “zero adhesion” to about 50% (Baur P, Pontzen R 2007. Basic features of plant surface wettability and deposit formation and the impact of adjuvants. In: R E Gaskin ed. Proceeding of the 8th International Symposium on Adjuvants for Agrochemicals. Publisher: International Society for Agrochemical Adjuvants (ISAA), Columbus, Ohio, USA). A value below 60 mN/m at 200 ms gives visibly better adsorption of aqueous spray liquids; in the case of standard flat jet nozzles, optimal wetting is achieved.
The values for dynamic surface tension (Krüss PocketDyne BP2100, T 24.6° C.) are shown below at for the linear C810 glucamide and the decene glucamide and a pelargonamide.

| Surface tension ([2]; conc. 0.6 g/L, 20 ms) [mN/m] | Surface tension ([2]; conc. 0.6 g/L, 50 ms) [mN/m] | Surface tension ([2]; conc. 0.6 g/L, 100 ms) [mN/m] | Surface tension ([2]; conc. 0.6 g/L, 200 ms) [mN/m] | Surface tension ([2]; conc. 1.25 g/L, 20 ms) [mN/m] | Surface tension ([2]; conc. 1.25 g/L, 50 ms) [mN/m] | Surface tension ([2]; conc. 1.25 g/L, 100 ms) [mN/m] | Surface tension ([2]; conc. 1.25 g/L, 200 ms) [mN/m] | Surface tension ([2]; conc. 2.5 g/L, 20 ms) [mN/m] | Surface tension ([2]; conc. 2.5 g/L, 50 ms) [mN/m] | Surface tension ([2]; conc. 2.5 g/L, 100 ms) [mN/m] | Surface tension ([2]; conc. 2.5 g/L, 200 ms) [mN/m] | Surface tension ([2]; conc. 5 g/L, 20 ms) [mN/m] | Surface tension ([2]; conc. 5 g/L, 50 ms) [mN/m] | Surface tension ([2]; conc. 5 g/L, 100 ms) [mN/m] | Surface tension ([2]; conc. 5 g/L, 200 ms) [mN/m] | Suitability as wetting agent compared to Synergen GA (C810) ([2]; summary in words of dynamic surface tension results) | Compound | pKa [1] | Promotion of penetration of mesotrione compared to the linear mixture of C8 and C10 glucamide (apple leaf cuticles) |
| --- | --- | --- | --- | --- | --- | --- | --- | --- | --- | --- | --- | --- | --- | --- | --- | --- | --- | --- | --- |
| – | – | – | – | – | – | – | – | – | – | – | – | – | – | – | – | – | CS(=O)(=O)c1ccc(C(=O)C2C(=O)CCCC2=O)c([N+](=O)[O-])c1 [Mesotrione, mesotrione] | 3.1 | – |
| 70.2 | 68.9 | 67.6 | 67.4 | 66.4 | 63.7 | 61.8 | 61.0 | 59.7 | 56.6 | 55.5 | 54.1 | 50.5 | 48.3 | 47.7 | 46.6 | wetting agent of comparable suitability | C=CCCCCCCCC(=O)N(C)C[C@H](O)[C@@H](O)[C@H](O)[C@H](O)CO [N-Methyl-N-dec-9-enoylglucamine, N-methyl-N-dec-9-enoylglucamine] | – | higher promotion of penetration of mesotrione |
| 70.2 | 68.8 | 67.7 | 67.1 | 66.0 | 63.7 | 62.6 | 61.1 | 59.1 | 56.3 | 55.3 | 53.8 | 47.7 | 45.6 | 45.2 | 44.3 | – | CCCCCCCCC(=O)N(C)C[C@H](O)[C@@H](O)[C@H](O)[C@H](O)CO [N-Methyl-N-nonanoylglucamine, N-methyl-N-nonanoylglucamine] | – | likewise falls short |

Source: patent US20170339949A1, “SUGAR SURFACTANTS AND USE THEREOF IN AGROCHEMICAL COMPOSITIONS” (Clariant International Ltd., priority 2014, published 2017)
